{"source": "PubChem BioAssay AID1259407", "about": "(Chemical Carcinogenesis Research Information System (CCRIS), 2018)", "system": "CCRIS mutagenicity, Ames/micronucleus/aberration tests", "test": "CCRIS mutagenicity studies", "note": "Calls of active or inactive are those of the source. The rule behind the calls is not given here.", "data": [{"smiles": "O=NN1CCCCC1", "values": [{"measurement": "mutagenic call", "setting": "Test System: AMES SALMONELLA TYPHIMURIUM, Strain/Indicator: TA98, Metabolic Activation: HAMSTER, LIVER, S-9, AROCLOR 1254 (10%), Method: PREINCUBATION", "result": "active; positive"}, {"measurement": "mutagenic call", "setting": "Test System: AMES SALMONELLA TYPHIMURIUM, Strain/Indicator: TA98, Metabolic Activation: HAMSTER, LIVER, S-9, AROCLOR 1254 (10%), Method: STANDARD PLATE", "result": "active; positive"}, {"measurement": "mutagenic call", "setting": "Test System: AMES SALMONELLA TYPHIMURIUM, Strain/Indicator: TA98, Metabolic Activation: HAMSTER, LIVER, S-9, AROCLOR 1254, Method: PREINCUBATION", "result": "active; positive"}, {"measurement": "mutagenic call", "setting": "Test System: AMES SALMONELLA TYPHIMURIUM, Strain/Indicator: TA98, Metabolic Activation: HAMSTER, LIVER, S-9, AROCLOR 1254, Method: STANDARD PLATE", "result": "active; positive"}, {"measurement": "mutagenic call", "setting": "Test System: AMES SALMONELLA TYPHIMURIUM, Strain/Indicator: TA98, Metabolic Activation: NONE, Method: PREINCUBATION", "result": "inactive; negative"}, {"measurement": "mutagenic call", "setting": "Test System: AMES SALMONELLA TYPHIMURIUM, Strain/Indicator: TA98, Metabolic Activation: NONE, Method: STANDARD PLATE", "result": "inactive; negative"}, {"measurement": "mutagenic call", "setting": "Test System: AMES SALMONELLA TYPHIMURIUM, Strain/Indicator: TA98, Metabolic Activation: RAT, LIVER, S-9, AROCLOR 1254 (10%), Method: PREINCUBATION", "result": "inactive; negative"}, {"measurement": "mutagenic call", "setting": "Test System: AMES SALMONELLA TYPHIMURIUM, Strain/Indicator: TA98, Metabolic Activation: RAT, LIVER, S-9, AROCLOR 1254 (10%), Method: STANDARD PLATE", "result": "inactive; negative"}, {"measurement": "mutagenic call", "setting": "Test System: AMES SALMONELLA TYPHIMURIUM, Strain/Indicator: TA98, Metabolic Activation: RAT, LIVER, S-9, AROCLOR 1254, Method: PREINCUBATION", "result": "inactive; negative"}, {"measurement": "mutagenic call", "setting": "Test System: AMES SALMONELLA TYPHIMURIUM, Strain/Indicator: TA98, Metabolic Activation: RAT, LIVER, S-9, AROCLOR 1254, Method: STANDARD PLATE", "result": "inactive; negative"}, {"measurement": "mutagenic call", "setting": "Test System: AMES SALMONELLA TYPHIMURIUM, Strain/Indicator: TA100, Metabolic Activation: HAMSTER, LIVER, S-9, AROCLOR 1254 (10%), Method: PREINCUBATION", "result": "active; positive"}, {"measurement": "mutagenic call", "setting": "Test System: AMES SALMONELLA TYPHIMURIUM, Strain/Indicator: TA100, Metabolic Activation: HAMSTER, LIVER, S-9, AROCLOR 1254 (10%), Method: STANDARD PLATE", "result": "active; positive"}, {"measurement": "mutagenic call", "setting": "Test System: AMES SALMONELLA TYPHIMURIUM, Strain/Indicator: TA100, Metabolic Activation: HAMSTER, LIVER, S-9, AROCLOR 1254, Method: PREINCUBATION", "result": "active; positive"}, {"measurement": "mutagenic call", "setting": "Test System: AMES SALMONELLA TYPHIMURIUM, Strain/Indicator: TA100, Metabolic Activation: HAMSTER, LIVER, S-9, Method: PREINCUBATION", "result": "active; positive"}, {"measurement": "mutagenic call", "setting": "Test System: AMES SALMONELLA TYPHIMURIUM, Strain/Indicator: TA100, Metabolic Activation: HUMAN, LIVER, S-9, Method: PREINCUBATION", "result": "active; positive"}, {"measurement": "mutagenic call", "setting": "Test System: AMES SALMONELLA TYPHIMURIUM, Strain/Indicator: TA100, Metabolic Activation: MOUSE, LIVER, S-9, Method: PREINCUBATION", "result": "active; positive"}, {"measurement": "mutagenic call", "setting": "Test System: AMES SALMONELLA TYPHIMURIUM, Strain/Indicator: TA100, Metabolic Activation: NONE, Method: PREINCUBATION", "result": "inactive; negative"}, {"measurement": "mutagenic call", "setting": "Test System: AMES SALMONELLA TYPHIMURIUM, Strain/Indicator: TA100, Metabolic Activation: NONE, Method: STANDARD PLATE", "result": "inactive; negative"}, {"measurement": "mutagenic call", "setting": "Test System: AMES SALMONELLA TYPHIMURIUM, Strain/Indicator: TA100, Metabolic Activation: RABBIT, LIVER, S-9, Method: STANDARD PLATE", "result": "inactive; negative"}, {"measurement": "mutagenic call", "setting": "Test System: AMES SALMONELLA TYPHIMURIUM, Strain/Indicator: TA100, Metabolic Activation: RABBIT, LUNG, S-9, Method: STANDARD PLATE", "result": "active; positive"}, {"measurement": "mutagenic call", "setting": "Test System: AMES SALMONELLA TYPHIMURIUM, Strain/Indicator: TA100, Metabolic Activation: RABBIT, NASAL, S-9, Method: STANDARD PLATE", "result": "inactive; negative"}, {"measurement": "mutagenic call", "setting": "Test System: AMES SALMONELLA TYPHIMURIUM, Strain/Indicator: TA100, Metabolic Activation: RAT, LIVER, S-9, AROCLOR 1254 (10%), Method: PREINCUBATION", "result": "active; positive"}, {"measurement": "mutagenic call", "setting": "Test System: AMES SALMONELLA TYPHIMURIUM, Strain/Indicator: TA100, Metabolic Activation: RAT, LIVER, S-9, AROCLOR 1254 (10%), Method: STANDARD PLATE", "result": "inactive; negative"}, {"measurement": "mutagenic call", "setting": "Test System: AMES SALMONELLA TYPHIMURIUM, Strain/Indicator: TA100, Metabolic Activation: RAT, LIVER, S-9, AROCLOR 1254, Method: PREINCUBATION", "result": "active; positive"}, {"measurement": "mutagenic call", "setting": "Test System: AMES SALMONELLA TYPHIMURIUM, Strain/Indicator: TA100, Metabolic Activation: RAT, LIVER, S-9, AROCLOR 1254, Method: STANDARD PLATE", "result": "inactive; negative"}, {"measurement": "mutagenic call", "setting": "Test System: AMES SALMONELLA TYPHIMURIUM, Strain/Indicator: TA100, Metabolic Activation: RAT, LUNG, S-9, Method: STANDARD PLATE", "result": "inactive; negative"}, {"measurement": "mutagenic call", "setting": "Test System: AMES SALMONELLA TYPHIMURIUM, Strain/Indicator: TA100, Metabolic Activation: RAT, NASAL, S-9, Method: STANDARD PLATE", "result": "active; positive"}, {"measurement": "mutagenic call", "setting": "Test System: AMES SALMONELLA TYPHIMURIUM, Strain/Indicator: TA100, Metabolic Activation: TOBACCO CELLS, Method: PREINCUBATION", "result": "inactive; negative"}, {"measurement": "mutagenic call", "setting": "Test System: AMES SALMONELLA TYPHIMURIUM, Strain/Indicator: TA104, Metabolic Activation: RAT, LIVER, S-9, AROCLOR 1254, Method: PREINCUBATION", "result": "active; positive"}, {"measurement": "mutagenic call", "setting": "Test System: AMES SALMONELLA TYPHIMURIUM, Strain/Indicator: TA1530, Metabolic Activation: RAT LIVER, CYTOSOL, ISONIAZID, Method: PREINCUBATION", "result": "inactive; negative"}, {"measurement": "mutagenic call", "setting": "Test System: AMES SALMONELLA TYPHIMURIUM, Strain/Indicator: TA1530, Metabolic Activation: RAT LIVER, MICROSOMES, ISONIAZID, Method: PREINCUBATION", "result": "active; positive"}, {"measurement": "mutagenic call", "setting": "Test System: AMES SALMONELLA TYPHIMURIUM, Strain/Indicator: TA1530, Metabolic Activation: RAT, LIVER, S-9, Method: STANDARD PLATE", "result": "active; positive"}, {"measurement": "mutagenic call", "setting": "Test System: AMES SALMONELLA TYPHIMURIUM, Strain/Indicator: TA1535, Metabolic Activation: HAMSTER, LIVER, S-9, AROCLOR 1254 (10%), Method: PREINCUBATION", "result": "active; positive"}, {"measurement": "mutagenic call", "setting": "Test System: AMES SALMONELLA TYPHIMURIUM, Strain/Indicator: TA1535, Metabolic Activation: HAMSTER, LIVER, S-9, AROCLOR 1254, Method: PREINCUBATION", "result": "active; positive"}, {"measurement": "mutagenic call", "setting": "Test System: AMES SALMONELLA TYPHIMURIUM, Strain/Indicator: TA1535, Metabolic Activation: NONE, Method: PREINCUBATION", "result": "inactive; negative"}, {"measurement": "mutagenic call", "setting": "Test System: AMES SALMONELLA TYPHIMURIUM, Strain/Indicator: TA1535, Metabolic Activation: RAT, LIVER, S-9, AROCLOR 1254 (10%), Method: PREINCUBATION", "result": "active; positive"}, {"measurement": "mutagenic call", "setting": "Test System: AMES SALMONELLA TYPHIMURIUM, Strain/Indicator: TA1535, Metabolic Activation: RAT, LIVER, S-9, AROCLOR 1254, Method: PREINCUBATION", "result": "active; positive"}, {"measurement": "mutagenic call", "setting": "Test System: AMES SALMONELLA TYPHIMURIUM, Strain/Indicator: TA1535, Metabolic Activation: RAT, LIVER, S-9, Method: STANDARD PLATE", "result": "active; positive"}, {"measurement": "mutagenic call", "setting": "Test System: AMES SALMONELLA TYPHIMURIUM, Strain/Indicator: TA1537, Metabolic Activation: HAMSTER, LIVER, S-9, AROCLOR 1254 (10%), Method: PREINCUBATION", "result": "inactive; negative"}, {"measurement": "mutagenic call", "setting": "Test System: AMES SALMONELLA TYPHIMURIUM, Strain/Indicator: TA1537, Metabolic Activation: HAMSTER, LIVER, S-9, AROCLOR 1254, Method: PREINCUBATION", "result": "inactive; negative"}, {"measurement": "mutagenic call", "setting": "Test System: AMES SALMONELLA TYPHIMURIUM, Strain/Indicator: TA1537, Metabolic Activation: NONE, Method: PREINCUBATION", "result": "inactive; negative"}, {"measurement": "mutagenic call", "setting": "Test System: AMES SALMONELLA TYPHIMURIUM, Strain/Indicator: TA1537, Metabolic Activation: RAT, LIVER, S-9, AROCLOR 1254 (10%), Method: PREINCUBATION", "result": "inactive; negative"}, {"measurement": "mutagenic call", "setting": "Test System: AMES SALMONELLA TYPHIMURIUM, Strain/Indicator: TA1537, Metabolic Activation: RAT, LIVER, S-9, AROCLOR 1254, Method: PREINCUBATION", "result": "inactive; negative"}, {"measurement": "mutagenic call", "setting": "Test System: AMES SALMONELLA TYPHIMURIUM, Strain/Indicator: TA1538, Metabolic Activation: HAMSTER, LIVER, S-9, AROCLOR 1254 (10%), Method: PREINCUBATION", "result": "inactive; negative"}, {"measurement": "mutagenic call", "setting": "Test System: AMES SALMONELLA TYPHIMURIUM, Strain/Indicator: TA1538, Metabolic Activation: HAMSTER, LIVER, S-9, AROCLOR 1254, Method: PREINCUBATION", "result": "inactive; negative"}, {"measurement": "mutagenic call", "setting": "Test System: AMES SALMONELLA TYPHIMURIUM, Strain/Indicator: TA1538, Metabolic Activation: NONE, Method: PREINCUBATION", "result": "inactive; negative"}, {"measurement": "mutagenic call", "setting": "Test System: AMES SALMONELLA TYPHIMURIUM, Strain/Indicator: TA1538, Metabolic Activation: RAT, LIVER, S-9, AROCLOR 1254 (10%), Method: PREINCUBATION", "result": "inactive; negative"}, {"measurement": "mutagenic call", "setting": "Test System: AMES SALMONELLA TYPHIMURIUM, Strain/Indicator: TA1538, Metabolic Activation: RAT, LIVER, S-9, AROCLOR 1254, Method: PREINCUBATION", "result": "inactive; negative"}, {"measurement": "mutagenic call", "setting": "Test System: AMES SALMONELLA TYPHIMURIUM, Strain/Indicator: TA1975, Metabolic Activation: RAT, LIVER, S-9, AROCLOR 1254, Method: PREINCUBATION", "result": "active; positive"}, {"measurement": "mutagenic call", "setting": "Test System: UDS RODENT CELLS, Strain/Indicator: THY INCORP (NON-S-PHASE), Metabolic Activation: NONE, Method: LIQUID SCINTILLATION COUNTING", "result": "inactive; negative"}, {"measurement": "mutagenic call", "setting": "Test System: UDS RODENT CELLS, Strain/Indicator: THY INCORP (NON-S-PHASE), Metabolic Activation: RAT, LIVER, S-9, SODIUM PHENOBARBITAL, Method: LIQUID SCINTILLATION COUNTING", "result": "active; positive"}]}]}
